ChEMBL document CHEMBL1201862, “PubChem BioAssay data set” (2004)
The source made the active and inactive calls.

Key:
[1] = molecular target: T1, RNA-binding protein pos-1 (Caenorhabditis elegans, UniProt G5EF15); assay: inhibitors of POS-1/mex-3 RNA binding, dose response, biochemical, fluorescence polarization (AID 1964);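 note: purified POS-1 fused to maltose binding protein made in E. coli; potency of compounds blocking POS-1 binding to fluorescent RNA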
T1 sequence (G5EF15 whole entry): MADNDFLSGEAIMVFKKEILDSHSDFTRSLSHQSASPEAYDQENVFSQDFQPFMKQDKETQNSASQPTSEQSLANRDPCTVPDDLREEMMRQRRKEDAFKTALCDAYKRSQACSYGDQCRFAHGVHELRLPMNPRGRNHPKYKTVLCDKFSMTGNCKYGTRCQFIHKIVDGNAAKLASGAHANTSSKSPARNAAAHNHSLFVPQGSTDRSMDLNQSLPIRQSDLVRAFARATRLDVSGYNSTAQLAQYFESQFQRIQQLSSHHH

[2] = HepG2 cell cytotoxicity, dose response, cytotoxicity control, ATP luminescence, cherry-pick, activator set 2 (AID 1053143); type: functional, cell-based
[3] = molecular target: T2, Zinc finger protein mex-5 (Caenorhabditis elegans, UniProt Q9XUB2); assay: MEX-5/TCR-2 RNA interaction inhibitors, dose response, biochemical, C. elegans, fluorescence polarization (AID 1960)
T2 sequence (Q9XUB2 whole entry): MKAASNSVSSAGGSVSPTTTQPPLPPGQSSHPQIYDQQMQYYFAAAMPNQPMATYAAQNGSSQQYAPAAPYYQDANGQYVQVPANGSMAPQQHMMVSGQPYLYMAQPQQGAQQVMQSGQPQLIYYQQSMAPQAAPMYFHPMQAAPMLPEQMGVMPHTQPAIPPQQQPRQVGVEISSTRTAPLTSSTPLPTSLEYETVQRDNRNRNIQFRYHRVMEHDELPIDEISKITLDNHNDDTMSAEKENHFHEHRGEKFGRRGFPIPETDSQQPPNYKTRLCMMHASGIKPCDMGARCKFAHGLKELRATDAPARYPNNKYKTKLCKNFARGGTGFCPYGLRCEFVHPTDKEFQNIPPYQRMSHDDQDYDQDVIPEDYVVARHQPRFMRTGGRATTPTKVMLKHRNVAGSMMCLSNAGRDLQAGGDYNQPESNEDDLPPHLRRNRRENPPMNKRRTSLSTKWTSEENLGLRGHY

[4] = molecular target: T3, Disintegrin and metalloproteinase domain-containing protein 17 (Homo sapiens, UniProt P78536); assay: exosite inhibitors of ADAM17, dose response, biochemical (AID 743260)
Ion channel NompC = Ion channel NompC (Danio rerio, UniProt Q7T1G6); assay: Fluorescence counterscreen assay for TRPML3 agonists: dose response cell-based high-throughput screening assay to identify agonists of the transient receptor potential channel N1 (TRPN1). [Related pubchem assays: 1526, 1424, 1448 ]; type: functional
Mucolipin-3 = molecular target: T4, Mucolipin-3 (Homo sapiens, UniProt Q8TDD5); assay: Dose response cell-based high-throughput screening assay for agonists of the transient receptor potential channel ML3 (TRPML3). [Related pubchem assays: 1526, 1424, 1448 ]; type: functional
T4 sequence (Q8TDD5 whole entry): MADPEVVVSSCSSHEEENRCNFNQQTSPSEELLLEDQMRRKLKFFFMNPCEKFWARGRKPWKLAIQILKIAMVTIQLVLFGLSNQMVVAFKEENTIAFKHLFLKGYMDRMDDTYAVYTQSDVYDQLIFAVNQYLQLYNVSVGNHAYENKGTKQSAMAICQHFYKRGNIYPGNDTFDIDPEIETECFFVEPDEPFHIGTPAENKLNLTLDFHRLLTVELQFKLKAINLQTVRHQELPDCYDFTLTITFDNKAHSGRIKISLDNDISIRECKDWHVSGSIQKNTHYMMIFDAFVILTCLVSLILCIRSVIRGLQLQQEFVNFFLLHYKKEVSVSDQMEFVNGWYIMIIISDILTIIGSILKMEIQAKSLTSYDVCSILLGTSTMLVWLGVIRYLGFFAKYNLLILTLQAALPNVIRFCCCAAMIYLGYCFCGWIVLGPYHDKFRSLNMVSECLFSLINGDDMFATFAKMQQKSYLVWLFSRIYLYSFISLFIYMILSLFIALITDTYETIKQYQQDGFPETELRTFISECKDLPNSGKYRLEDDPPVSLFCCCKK

[5] = inhibitors of PGC1a acetylation in cells, dose response, cell-based, cherry-picked samples (AID 720514); type: functional;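 note: potency may reflect raised or lowered acetylation signal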
[6] = molecular target: T5, Microphthalmia-associated transcription factor (Homo sapiens, UniProt O75030); assay: TRPM1 promoter luciferase signal decrease, dose response, MITF inhibitor project, cell-based, SK-MEL-5, cherry-picked, set 3 (AID 493073); type: functional
T5 sequence (O75030 whole entry): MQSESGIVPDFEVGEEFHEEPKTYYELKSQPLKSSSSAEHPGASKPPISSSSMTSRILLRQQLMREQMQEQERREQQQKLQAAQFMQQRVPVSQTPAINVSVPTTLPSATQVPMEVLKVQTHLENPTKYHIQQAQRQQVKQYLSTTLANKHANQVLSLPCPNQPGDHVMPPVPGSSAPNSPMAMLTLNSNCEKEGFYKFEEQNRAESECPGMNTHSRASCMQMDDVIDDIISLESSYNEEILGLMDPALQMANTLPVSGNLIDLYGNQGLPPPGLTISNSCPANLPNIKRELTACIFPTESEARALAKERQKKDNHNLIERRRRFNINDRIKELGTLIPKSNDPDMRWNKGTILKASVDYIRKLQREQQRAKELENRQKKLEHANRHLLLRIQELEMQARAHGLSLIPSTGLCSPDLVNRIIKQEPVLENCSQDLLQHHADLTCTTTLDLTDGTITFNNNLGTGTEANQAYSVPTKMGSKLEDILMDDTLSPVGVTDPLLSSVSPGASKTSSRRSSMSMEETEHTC

[7] = molecular target: T3, Disintegrin and metalloproteinase domain-containing protein 17; assay: ADAM17 protease inhibitors, dose response, counter-screen for ADAM10 exosite inhibitor project, biochemical, quenched FRET substrate (AID 743253)
[8] = ADAM10 inhibitors, peptide cleavage, dose response, biochemical, QFRET (AID 743254);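 note: ADAM10 enzyme with the DM2 quenched FRET peptide as substrate; EDANS fluorescence gain as the protease cuts the substrate; inhibitor potency against ADAM10 proteolytic activity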
[9] = molecular target: T6, Rac GTPase-activating protein 1 (Homo sapiens, UniProt Q9H0H5); assay: MgcRacGAP GTPase-activating activity inhibitors, confirmation, biochemical, ADP Hunter fluorescence, primary and confirmatory (AID 624330); type: functional
T6 sequence (Q9H0H5 whole entry): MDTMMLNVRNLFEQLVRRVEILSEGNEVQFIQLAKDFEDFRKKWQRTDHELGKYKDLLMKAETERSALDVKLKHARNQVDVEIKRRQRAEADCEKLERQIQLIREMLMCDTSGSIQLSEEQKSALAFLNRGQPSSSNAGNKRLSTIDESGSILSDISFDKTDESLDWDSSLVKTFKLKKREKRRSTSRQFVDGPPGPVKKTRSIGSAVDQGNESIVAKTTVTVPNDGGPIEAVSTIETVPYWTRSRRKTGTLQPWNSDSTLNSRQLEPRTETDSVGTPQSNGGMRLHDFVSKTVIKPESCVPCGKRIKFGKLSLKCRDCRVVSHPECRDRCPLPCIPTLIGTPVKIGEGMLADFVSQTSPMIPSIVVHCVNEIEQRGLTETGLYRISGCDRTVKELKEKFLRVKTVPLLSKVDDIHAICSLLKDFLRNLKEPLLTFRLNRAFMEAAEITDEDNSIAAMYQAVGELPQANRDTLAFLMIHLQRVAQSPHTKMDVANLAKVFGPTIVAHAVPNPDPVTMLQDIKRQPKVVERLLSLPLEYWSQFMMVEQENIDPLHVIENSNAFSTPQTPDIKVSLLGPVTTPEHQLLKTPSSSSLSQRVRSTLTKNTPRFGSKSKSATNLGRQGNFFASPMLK

[10] = HeLa cell cytotoxicity, dose response, cytotoxicity control for MgcRacGAP inhibitor project (AID 624300); type: functional
HEK293 [11] = assay: cells; conditions: Homo sapiens
HEK293 [12] = assay: cells; conditions: Homo sapiens; remark: listed apart in the source
[13] = molecular target: E3 ubiquitin-protein ligase UHRF1 (Homo sapiens, UniProt Q96T88); assay: Counterscreen for inhibitors of 5-meCpG-binding domain protein 2 (MBD2): TRFRET-based biochemical high throughput dose response assay to identify inhibitors of binding of ubiquitin-like with PHD and ring finger domains 1 (UHRF1) to methylated oligonucleotide.
[14] = Counterscreen for activators of the function of SWI/SNF related, matrix associated, actin dependent regulator of chromatin, subfamily a, member 2 (SMARCA2, BRM): Luminescence-based cell-based high throughput dose response assay to identify non-selective compounds using the VP16 reporter assay.; type: functional
[15] = molecular target: SWI/SNF-related matrix-associated actin-dependent regulator of chromatin subfamily A member 2 (Homo sapiens, UniProt P51531); assay: Luminescence-based cell-based high throughput dose response assay to identify activators of the function of SWI/SNF related, matrix associated, actin dependent regulator of chromatin, subfamily a, member 2 (SMARCA2, BRM).; type: functional
[16] = molecular target: COUP transcription factor 2 (Homo sapiens, UniProt P24468); assay: Luminescence-based cell-based high throughput dose response assay to identify inhibitors of COUP-TFII (NR2F2).; type: functional;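 note: HEK293 cells transiently cotransfected with COUP-TFII expression vector and reporter; luciferase reporter luminescence driven by COUP-TFII from the pX2-168 reporter plasmid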
[17] = molecular target: Dual specificity tyrosine-phosphorylation-regulated kinase 1A (Rattus norvegicus, UniProt Q63470); type: biochemical, Homo sapiens
Paired box protein Pax-8 = Paired box protein Pax-8 (Homo sapiens, UniProt Q06710); assay: inhibitors of PAX8-driven TPO luciferase reporter, dose response, RMG-I cells, cherry-pick (AID 687027); type: functional, cell-based;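 note: luciferase reporter driven by Pax8 target thyroperoxidase promoter measured by SteadyGlo luminescence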
Protein Tat = Protein Tat (Human immunodeficiency virus type 1 group M subtype B (isolate HXB2)(HIV-1), UniProt P04608); type: functional;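 note: tat binding to TAR RNA read out by fluorescence polarization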
[18] = molecular target: G-protein coupled receptor 183 (Homo sapiens, UniProt P32249); assay: SAR confirmation of small molecule antagonists of the EBI2 receptor via a luminescent beta-arrestin assa.; type: functional
[19] = P. falciparum Dd2 growth inhibitors, dose response, SYBR Green, cherry-picked samples (AID 1159567); type: functional, cell-based
[20] = P. falciparum Dd2 growth inhibitors, dose response, SYBR Green, dry powder samples (AID 1159566); type: functional, cell-based;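 note: potency for growth inhibition with lower SYBR green DNA signal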
[21] = P. falciparum 3D7-ScDHODH growth inhibitors, dose response, SYBR Green, dry powder samples (AID 1159570); type: functional, cell-based;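 note: parasite growth measured after 72 hours of compound exposure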
[22] = P. falciparum ATP4 D1247Y mutant growth inhibitors, dose response, NITD609-resistant line, SYBR Green, dry powder (AID 1159571); type: functional, cell-based;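 note: parasites synchronized at ring stage by sorbitol before testing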
[23] = Dose-response inhibition of insulin secretion in a rat insulinoma line at 5 mM glucose (AID 1117331); type: functional, cell-based; conditions: INS-1E

T3 sequence (P78536 whole entry, the tested form may be a part): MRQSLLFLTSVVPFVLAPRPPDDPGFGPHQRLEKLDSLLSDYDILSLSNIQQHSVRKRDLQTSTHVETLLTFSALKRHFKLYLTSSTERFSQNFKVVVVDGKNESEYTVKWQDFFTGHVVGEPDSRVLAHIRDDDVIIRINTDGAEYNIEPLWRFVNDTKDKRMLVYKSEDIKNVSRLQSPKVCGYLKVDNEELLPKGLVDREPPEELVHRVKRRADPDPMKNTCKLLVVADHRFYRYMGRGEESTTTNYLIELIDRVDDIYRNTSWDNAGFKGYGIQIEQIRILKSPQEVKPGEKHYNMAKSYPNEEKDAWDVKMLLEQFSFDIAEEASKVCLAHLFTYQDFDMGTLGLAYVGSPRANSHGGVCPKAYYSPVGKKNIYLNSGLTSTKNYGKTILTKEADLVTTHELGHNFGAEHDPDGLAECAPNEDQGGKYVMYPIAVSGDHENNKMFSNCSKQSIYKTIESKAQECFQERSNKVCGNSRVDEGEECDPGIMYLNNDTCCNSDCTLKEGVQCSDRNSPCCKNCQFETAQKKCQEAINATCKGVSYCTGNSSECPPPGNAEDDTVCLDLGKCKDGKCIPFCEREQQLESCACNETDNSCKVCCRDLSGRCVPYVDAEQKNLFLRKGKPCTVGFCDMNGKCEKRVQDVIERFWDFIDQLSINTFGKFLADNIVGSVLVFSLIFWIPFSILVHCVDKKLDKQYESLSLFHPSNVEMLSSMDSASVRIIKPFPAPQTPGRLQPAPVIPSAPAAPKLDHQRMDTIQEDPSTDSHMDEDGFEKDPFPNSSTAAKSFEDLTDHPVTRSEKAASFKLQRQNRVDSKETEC
Sequence of E3 ubiquitin-protein ligase UHRF1 (Q96T88 whole entry, the tested form may be a part): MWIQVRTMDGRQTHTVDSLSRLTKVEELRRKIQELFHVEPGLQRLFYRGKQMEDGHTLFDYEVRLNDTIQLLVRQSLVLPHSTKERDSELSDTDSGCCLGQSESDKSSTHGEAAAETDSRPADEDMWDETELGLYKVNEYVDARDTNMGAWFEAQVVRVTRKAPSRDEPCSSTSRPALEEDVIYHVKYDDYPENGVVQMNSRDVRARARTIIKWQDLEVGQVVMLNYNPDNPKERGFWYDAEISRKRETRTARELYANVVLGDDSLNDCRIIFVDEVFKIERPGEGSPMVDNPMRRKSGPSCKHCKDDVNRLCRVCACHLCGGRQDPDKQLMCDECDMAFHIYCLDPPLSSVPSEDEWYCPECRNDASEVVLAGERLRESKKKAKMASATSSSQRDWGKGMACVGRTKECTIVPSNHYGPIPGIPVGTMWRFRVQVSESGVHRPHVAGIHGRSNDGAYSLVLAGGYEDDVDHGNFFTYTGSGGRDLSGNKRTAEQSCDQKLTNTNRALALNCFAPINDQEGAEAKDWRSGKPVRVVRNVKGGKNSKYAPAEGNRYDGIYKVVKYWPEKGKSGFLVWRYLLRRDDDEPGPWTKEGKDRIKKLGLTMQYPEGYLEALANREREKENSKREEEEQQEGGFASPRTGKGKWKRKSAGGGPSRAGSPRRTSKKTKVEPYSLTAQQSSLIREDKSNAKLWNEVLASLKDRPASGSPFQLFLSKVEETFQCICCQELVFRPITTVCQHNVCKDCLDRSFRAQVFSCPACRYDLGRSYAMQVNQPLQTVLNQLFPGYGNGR
Sequence of G-protein coupled receptor 183 (P32249 whole entry): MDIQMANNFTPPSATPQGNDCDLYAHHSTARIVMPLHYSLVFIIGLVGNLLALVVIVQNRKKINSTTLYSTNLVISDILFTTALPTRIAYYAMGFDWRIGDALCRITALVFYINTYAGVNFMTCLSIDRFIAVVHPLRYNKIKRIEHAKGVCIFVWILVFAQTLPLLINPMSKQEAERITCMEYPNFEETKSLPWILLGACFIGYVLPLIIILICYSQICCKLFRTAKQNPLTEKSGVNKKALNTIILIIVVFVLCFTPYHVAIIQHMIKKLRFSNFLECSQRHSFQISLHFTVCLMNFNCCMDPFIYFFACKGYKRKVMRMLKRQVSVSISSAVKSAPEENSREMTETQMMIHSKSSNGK
Sequence of SWI/SNF-related matrix-associated actin-dependent regulator of chromatin subfamily A member 2 (P51531 whole entry): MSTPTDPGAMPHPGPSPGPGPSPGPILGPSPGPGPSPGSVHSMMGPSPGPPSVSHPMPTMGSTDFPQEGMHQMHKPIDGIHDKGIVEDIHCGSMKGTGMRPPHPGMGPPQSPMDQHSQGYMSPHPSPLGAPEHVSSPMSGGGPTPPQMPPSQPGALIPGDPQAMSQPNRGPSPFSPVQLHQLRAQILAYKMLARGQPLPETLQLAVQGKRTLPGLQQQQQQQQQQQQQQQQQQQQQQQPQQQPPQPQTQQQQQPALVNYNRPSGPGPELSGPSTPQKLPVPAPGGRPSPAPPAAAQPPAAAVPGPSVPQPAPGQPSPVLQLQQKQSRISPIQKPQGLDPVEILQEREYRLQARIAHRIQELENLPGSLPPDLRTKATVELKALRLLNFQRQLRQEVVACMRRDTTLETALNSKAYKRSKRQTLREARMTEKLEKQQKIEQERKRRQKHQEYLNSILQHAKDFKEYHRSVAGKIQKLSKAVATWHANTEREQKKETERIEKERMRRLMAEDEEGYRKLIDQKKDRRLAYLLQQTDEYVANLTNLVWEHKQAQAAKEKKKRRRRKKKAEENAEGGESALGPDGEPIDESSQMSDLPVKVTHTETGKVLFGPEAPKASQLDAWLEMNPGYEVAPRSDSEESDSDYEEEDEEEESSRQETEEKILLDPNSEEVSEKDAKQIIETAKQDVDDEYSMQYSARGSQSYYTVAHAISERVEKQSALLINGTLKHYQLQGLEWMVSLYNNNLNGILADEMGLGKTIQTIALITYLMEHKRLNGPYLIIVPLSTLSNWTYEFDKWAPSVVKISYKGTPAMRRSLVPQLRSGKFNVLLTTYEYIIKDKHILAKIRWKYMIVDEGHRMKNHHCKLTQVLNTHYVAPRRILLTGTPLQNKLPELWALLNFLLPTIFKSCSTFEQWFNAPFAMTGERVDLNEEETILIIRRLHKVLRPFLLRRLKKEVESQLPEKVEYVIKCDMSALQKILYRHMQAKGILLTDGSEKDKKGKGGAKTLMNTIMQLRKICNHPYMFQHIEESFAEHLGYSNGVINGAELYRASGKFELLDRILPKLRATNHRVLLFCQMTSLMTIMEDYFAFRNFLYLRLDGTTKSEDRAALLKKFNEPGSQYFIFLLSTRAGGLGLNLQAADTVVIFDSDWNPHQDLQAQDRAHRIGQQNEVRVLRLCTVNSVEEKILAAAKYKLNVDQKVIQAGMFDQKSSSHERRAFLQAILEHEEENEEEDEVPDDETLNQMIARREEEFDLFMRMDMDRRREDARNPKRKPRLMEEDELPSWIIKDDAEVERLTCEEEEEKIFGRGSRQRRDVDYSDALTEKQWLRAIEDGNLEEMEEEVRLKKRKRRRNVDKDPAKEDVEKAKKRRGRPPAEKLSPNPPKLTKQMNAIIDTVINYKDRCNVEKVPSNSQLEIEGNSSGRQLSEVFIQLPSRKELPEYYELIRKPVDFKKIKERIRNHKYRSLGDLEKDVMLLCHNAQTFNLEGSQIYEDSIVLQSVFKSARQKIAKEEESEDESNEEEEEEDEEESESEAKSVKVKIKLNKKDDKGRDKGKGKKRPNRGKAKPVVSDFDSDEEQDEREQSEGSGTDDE
Sequence of Paired box protein Pax-8 (Q06710 whole entry): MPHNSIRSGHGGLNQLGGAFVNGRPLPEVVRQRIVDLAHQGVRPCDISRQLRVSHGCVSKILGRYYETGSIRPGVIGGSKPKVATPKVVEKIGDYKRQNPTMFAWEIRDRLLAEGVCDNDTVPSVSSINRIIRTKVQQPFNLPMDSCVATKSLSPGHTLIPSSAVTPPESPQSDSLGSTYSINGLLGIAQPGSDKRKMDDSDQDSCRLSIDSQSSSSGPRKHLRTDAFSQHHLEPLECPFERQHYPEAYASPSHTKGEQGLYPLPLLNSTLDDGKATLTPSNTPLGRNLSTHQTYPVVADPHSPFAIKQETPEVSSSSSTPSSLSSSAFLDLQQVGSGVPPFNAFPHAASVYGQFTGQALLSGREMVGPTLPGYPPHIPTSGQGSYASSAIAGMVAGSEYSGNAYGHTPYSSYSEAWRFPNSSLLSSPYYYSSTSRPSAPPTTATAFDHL
Sequence of Protein Tat (P04608 whole entry): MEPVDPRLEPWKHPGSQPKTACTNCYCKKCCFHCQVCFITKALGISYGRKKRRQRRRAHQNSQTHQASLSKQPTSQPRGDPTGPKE
Sequence of COUP transcription factor 2 (P24468 whole entry): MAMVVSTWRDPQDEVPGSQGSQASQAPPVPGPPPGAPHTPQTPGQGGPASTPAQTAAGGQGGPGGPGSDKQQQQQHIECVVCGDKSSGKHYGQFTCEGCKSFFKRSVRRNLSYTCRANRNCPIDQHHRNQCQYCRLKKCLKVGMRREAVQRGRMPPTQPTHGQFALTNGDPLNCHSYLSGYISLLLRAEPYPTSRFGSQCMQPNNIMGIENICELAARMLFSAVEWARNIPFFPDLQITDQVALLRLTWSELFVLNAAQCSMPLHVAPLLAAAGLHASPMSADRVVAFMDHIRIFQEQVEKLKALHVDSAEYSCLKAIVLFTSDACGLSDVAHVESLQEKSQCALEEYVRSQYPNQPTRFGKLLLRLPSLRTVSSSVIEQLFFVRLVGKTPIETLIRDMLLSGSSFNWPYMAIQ

For `O=c1c2ccccc2oc2ccc(NCCCn3ccnc3)cc12`, the EC50 [1] was 55.2 µM (active), the AC50 [2] was > 52 µM (inactive) and the EC50 [3] was 50.5 µM (active).
In the case of `C=C(C)CN1CCN(S(=O)(=O)c2ccc(C)c(N(C)S(=O)(=O)c3ccc(C)cc3)c2C)CC1`, the IC50 [4] is reported as > 69.5 µM (inactive), the EC50 (Ion channel NompC) is reported as > 29.9 µM (not active) and the EC50 (Mucolipin-3) is reported as 2.76 µM (active).
In the case of `CCC(=O)N1CCN(c2ccc(Cl)cc2NC(=O)c2ccc([N+](=O)[O-])o2)CC1`, the AC50 [5] is reported as 29.4 µM (active) and the AC50 [6] is reported as 12.4 µM (active).
In the case of `CCn1nc(C(=O)OC(C(=O)c2c[nH]c3ccccc23)c2ccccc2)c2ccccc2c1=O` (stereo not given), the IC50 [7] is reported as > 69.5 µM (inactive) and the IC50 [8] is reported as > 69.5 µM (inactive).
In the case of `CCOc1cc(C2NN=C(c3ccc(C)cc3)S2)ccc1O` (stereo not given), the AC50 [2] is reported as > 52 µM (inactive), the IC50 [9] is reported as 112 µM (active) and the CC50 [10] is reported as 100 µM (active).
For `OC(c1ccccc1)(c1nc(-c2ccc(Cl)cc2)cs1)C(F)(F)F` (stereo not given), the IC50 [7] was > 69.5 µM (inactive) and the IC50 [8] was 13.9 µM (inactive).
With `Clc1ccc2c(c1)-c1ccccc1C1=NCCN12` the EC50 (HEK293 [11]) was > 59.5 µM (inactive), the EC50 (HEK293 [12]) was > 59.5 µM (inactive) and the IC50 [13] was > 43.8 µM (inactive). The EC50 [14] was > 91.3 µM (inactive) and the EC50 [15] was 4.65 µM (active).
For `CCc1cc(-c2nnn(CCC3COCCO3)c2CC)ccc1-c1cn(Cc2ccc3ccccc3c2)nn1` (stereo not given), the IC50 [16] was 10 µM (inactive).
With `CN(C)CCNc1ccc(CO)c2sc3ccc(O)cc3c(=O)c12` the AC50 [17] was 1.82 µM (active), the AC50 (Paired box protein Pax-8) was 5.72 µM (active) and the IC50 [13] was > 43.8 µM (inactive). For the same compound, the IC50 [9] was 20.2 µM (active) and the CC50 [10] was 36.1 µM (active).
With `CC1CCCC(/C=N/c2ccc(O)cc2)=C1O` (stereo not given) the IC50 [9] was 26.9 µM (active) and the IC50 (Protein Tat) was 30.8 µM (inconclusive).
For `O=C(/C=C/c1ccc(Br)cc1)N1CCN(C(=O)c2cccc(B(O)O)c2)CC1`, the IC50 [18] was 0.0287 µM (active).
In the case of `COc1cccc(S(=O)(=O)N2CCN(C(=O)/C=C/c3ccc(F)cc3)CC2)c1`, the IC50 [18] is reported as 0.0521 µM (active).
For `COc1ccc2c3c([nH]c2c1)[C@H](CO)N(C(=O)C1CCOCC1)CC31CCN(Cc2nccs2)CC1`, the AC50 [19] was 2.43 µM (active), the AC50 [20] was 0.467 µM (active) and the AC50 [21] was 0.387 µM (active). For the same compound, the AC50 [22] was 0.384 µM (active).
With `COc1ccc(Cl)cc1C(=O)NCCc1ccc(S(=O)(=O)NC(=O)NC2CCCCC2)cc1` [GLYBURIDE] the IC50 [23] was 0.00808 µM (active).
